Reference: patent US5696138A, “Urea derivatives and their use” (priority 1993, dated 1997)

Key:
BK channel [1] = target: BK channel (Bos taurus, UniProt Q28204); experiment: Single channel experiments, cultured bovine aortic smooth muscle cells; type: cell-based
Experimental: (§1) All experiments were performed with patch-clamp technique (Hamill et al., Pflugers Arch. 391, 85-100 (1981)). The ion composition of the internal solution was (in mM) 140 KCl, 1 CaCl2, 1 MgCl2, 2 EGTA, 10 HEPES and the external solution contained 140 NaCl, 4 KCl, 2 CaCl2, 1 MgCl2 and 10 HEPES.
The BK channels were also activated by N-(3-(trifluoromethyl)phenyl)-N'-(2-hydroxy-5-chlorophenyl) urea and N-phenyl-N'-(2-hydroxy-5-chlorophenyl) urea at concentrations equal or greater than 3 μM and by N-(3-(trifluoromethyl)phenyl)-N'-(2-hydroxy-5-(trifluoromethyl)phenyl) urea at concentrations greater than 10 μM.

BK currents = BK currents (Bos taurus, UniProt Q28204); experiment: Whole cell recordings (patch-clamp, voltage clamp) of membrane currents in calf aortic smooth muscle cells; type: cell-based; conditions: 1-10 μM in the bath
Sequence of BK currents (Q28067 whole entry): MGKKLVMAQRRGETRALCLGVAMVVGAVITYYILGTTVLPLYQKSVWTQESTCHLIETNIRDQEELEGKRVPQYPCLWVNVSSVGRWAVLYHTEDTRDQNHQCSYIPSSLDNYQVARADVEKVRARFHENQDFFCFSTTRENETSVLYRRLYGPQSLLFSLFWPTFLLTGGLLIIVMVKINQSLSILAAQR
Sequence of BK currents (Q28204 whole entry): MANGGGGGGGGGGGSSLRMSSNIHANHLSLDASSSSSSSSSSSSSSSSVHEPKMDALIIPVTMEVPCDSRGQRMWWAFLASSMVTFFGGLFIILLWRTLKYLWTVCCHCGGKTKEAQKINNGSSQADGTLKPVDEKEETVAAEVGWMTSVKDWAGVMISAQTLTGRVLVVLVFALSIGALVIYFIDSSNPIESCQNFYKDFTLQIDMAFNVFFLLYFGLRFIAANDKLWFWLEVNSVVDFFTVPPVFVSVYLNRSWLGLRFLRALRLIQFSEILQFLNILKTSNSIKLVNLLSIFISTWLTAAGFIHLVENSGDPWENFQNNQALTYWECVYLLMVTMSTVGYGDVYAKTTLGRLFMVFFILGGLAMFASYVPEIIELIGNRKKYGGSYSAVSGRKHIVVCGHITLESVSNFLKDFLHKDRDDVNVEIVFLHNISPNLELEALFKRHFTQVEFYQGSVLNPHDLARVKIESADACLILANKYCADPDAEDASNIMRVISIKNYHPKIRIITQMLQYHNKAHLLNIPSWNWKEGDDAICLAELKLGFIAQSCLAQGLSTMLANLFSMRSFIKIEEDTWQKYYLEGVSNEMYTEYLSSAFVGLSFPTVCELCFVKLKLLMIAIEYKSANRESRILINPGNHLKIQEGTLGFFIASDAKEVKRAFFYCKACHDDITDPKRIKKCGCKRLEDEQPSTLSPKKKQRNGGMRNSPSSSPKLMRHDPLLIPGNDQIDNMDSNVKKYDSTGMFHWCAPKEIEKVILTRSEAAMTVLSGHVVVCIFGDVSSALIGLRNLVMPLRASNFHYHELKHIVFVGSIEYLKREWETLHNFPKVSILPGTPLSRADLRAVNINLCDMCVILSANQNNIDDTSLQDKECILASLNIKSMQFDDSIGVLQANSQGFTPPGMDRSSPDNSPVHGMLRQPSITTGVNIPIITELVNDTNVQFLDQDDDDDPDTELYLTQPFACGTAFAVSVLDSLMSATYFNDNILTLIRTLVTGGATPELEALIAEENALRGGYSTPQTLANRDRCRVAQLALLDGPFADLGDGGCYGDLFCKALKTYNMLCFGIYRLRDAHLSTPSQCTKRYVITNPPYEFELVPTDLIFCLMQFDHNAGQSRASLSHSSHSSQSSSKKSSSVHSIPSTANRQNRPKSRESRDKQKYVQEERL
Experimental: as §1
The membrane currents of calf aortic smooth muscle cells were determined in whole-cell recordings using voltage clamp mode (HEKA EPC-9 patch-clamp amplifier).

[2] = test system: cocaine induced hypermotility; experiment: Cocaine motility test; type: in vivo; conditions: 10-30 mg/kg i.p. 15 min before 25 mg/kg cocaine; female NMRI mice; motility over 120 min
Experimental: The compound, N-(3-(trifluoromethyl)phenyl)-N'-(2-hydroxy-5-chlorophenyl) urea, has been studied in the cocaine motility test. Cocaine induces hypermotility due to an inhibition of dopamine reuptake. The test is recognized as a test predicting anti-psychotic activity.
Method: Two female NMRI mice (20-25 g) are placed in each test box (normal transparent plexiglas cage, w, l, h=21×39×19 cm) in the test room for at least 16 hours with food and water ad libitum before the test in order for the animals to habituate to the situation. The test compound is administered i.p. 15 min before saline or 25 mg/kg cocaine jip. to 32 mice (16 boxes) per dose. Food and water are withdrawn, and the motility is measured as the number of interrupted infrared photo-beams (8 per box placed 5 cm apart and 3 cm over the bottom of the cage) for the next 120 min.

BK channel [3] = experiment: Single channel experiments, inside-out patches of human coronary artery smooth muscle cell membrane; type: cell-based; conditions: 1-10 μM
Experimental: as §1
In inside-out patches of human coronary artery smooth muscle cell membrane single BK channels were activated by for example N-(3-(trifluoromethyl)phenyl)-N'-(2-hydroxy-5-chlorophenyl) urea (1-10 μM).

[4] = test system: acetylcholine-contracted guinea-pig ileum; experiment: Guinea-pig ileum experiment (relaxation of acetylcholine-contracted ileum); conditions: 3-30 μM; ileum precontracted with acetylcholine 0.015-5.0 μM
Experimental: The compound, N-(3-(trifluoromethyl)phenyl)-N'-(2-hydroxy-5-chlorophenyl) urea, has been studied for its ability to relax acetylcholine-contracted guinea-pig ileum. The smooth muscle cells of the ileum express many BK channels and the model predicts relaxing effects on the gastrointestinal or urogenital tracts.
Method: Ileum from guinea-pigs are isolated and mounted in an isometric contraction chamber. It is bathed in a physiological Krebs solution at 98° F. The ileum is precontracted with increasing concentrations of acetylcholine (0.015-5.0 μM). The contractions are reversed by including the compound in the bathing solution.

Sequence of BK channel (Bos taurus, UniProt Q28204) (Q28204 whole entry): as above
Sequence of BK channel (Bos taurus, UniProt Q28204) (Q28067 whole entry partner): as the sequence (Q28067 whole entry) above

SMILES | concentrations at which the BK channels were activated (BK channel [1]) | activation of BK currents (blockable by charybdotoxin) (BK currents) | increase of the outward current (BK currents) | shift of the activation curve towards negative membrane potentials (BK currents) | activation of the BK channel (BK channel [1]; 1 μM) | antagonism of cocaine induced hypermotility [2] | activation of single BK channels (BK channel [3]) | increase of the open probability of the BK channel (BK channel [3]) | relaxation of acetylcholine-contracted guinea-pig ileum [4]
O=C(Nc1cccc(C(F)(F)F)c1)Nc1cc(C(F)(F)F)ccc1O [N-(3-(trifluoromethyl)phenyl)-N'-(2-hydroxy-5-(trifluoromethyl)phenyl) urea] | greater than 10 μM |  |  |  |  |  |  |  | 
O=C(Nc1cccc(C(F)(F)F)c1)Nc1cc(Cl)ccc1O [N-(3-(trifluoromethyl)phenyl)-N'-(2-hydroxy-5-chlorophenyl) urea] | ≥ 3 µM | specifically activated BK currents | up to 10 times | more than -60 mV | significantly activated | antagonizes cocaine induced hypermotility | activated | several hundred | relaxes the ileum in a dose-dependent way
O=C(Nc1ccccc1)Nc1cc(Cl)ccc1O [N-phenyl-N'-(2-hydroxy-5-chlorophenyl) urea] | ≥ 3 µM |  |  |  |  |  |  |  | 
